Values quoted from earlier work as cited in patent US6753013B1, “Pharmaceutical composition” (Leo Pharmaceutical Products, Ltd. A/S, priority 1999, dated 2004).

System: psoriatic skin
Settings: simultaneous application of a steroid, such as betamethasone, onto psoriatic skin

Compound: C=C1/C(=C\C=C2/CCC[C@]3(C)[C@@H]([C@H](C)/C=C/[C@@H](O)C4CC4)CC[C@@H]23)C[C@@H](O)C[C@@H]1O [calcipotriol]
- Skin irritative side effects: alleviated
